Consider 3 compounds from PMC8371461 (Frontiers in Pharmacology, 2021).

Usually pKd stands for the Kd on a negative log10 scale, so that one unit is a factor of ten.

pKd: −log10 of the molar value.

One experiment deals with RIOK2. Further details: method as in Varin et al., 2015. As to conditions: ref Varin et al., 2015; cited from earlier work.
Another experiment deals with HeLa cells. Put plainly: LC3B positive autophagosomes, immunofluorescent staining. The conditions noted are these: 10 µM, three days. The class given is cell-based. How it is done:
(§1) Cells were fixed with PBS containing 0.5% of para-formaldehyde for 15 min at room temperature. After three washing steps in PBS, cells were permeabilized with PBS containing 0.3% of Triton X-100 (Sigma) for 1 h at room temperature. After washing with PBS three times, cells were incubated overnight with the anti-LC3B antibody in PBS with 1% bovine serum albumin (Sigma) at 4°C. After three washing steps in PBS, cells were incubated with the fluorescent secondary antibody for 90 min at 4°C in PBS with 1% bovine serum albumin. They were then incubated with […] DAPI (Thermofisher) in PBS for 15 min. After washing with PBS, cells were rinsed once in water prior to mounting in the FluorSave reagent (Millipore).
(§2) Depending of these transitory environmental conditions, autophagy can either promote survival or apoptosis ([Degtyarev et al., 2008]). PIK/AKT pathway inhibition has been reported to increase cell autophagy ([Palmieri et al., 2017]). More specifically, PIP4K2C has been described as a down-regulator of autophagy ([Sharma et al., 2019]).

The subject of the next experiment is PSC. The description is as above. Type of experiment: cell-based, mouse. The conditions noted are these: 10 µM, three days. As for the experimental part: as §1, §2

`O=C(Cc1ccc(-c2ccccc2)cc1)Nc1ccccn1` [Diphenpyramide]: the pKd on RIOK2 is 6.80.
Consider `FC(F)(F)c1ccccc1-c1nc(NCc2cccs2)c2ccccc2n1` [NIH-12848], for which the “number of LC3B-positive autophagosomes” value in the experiment with HeLa cells is given as “confirmed in HeLa cells”.
Consider `NC(=O)c1nc(Nc2ccccc2)sc1NC(=O)C1CCCCC1` [UNC-3230], for which the “number of LC3B-positive autophagosomes” value in the experiment on PSC and in the experiment with HeLa cells was “increased” each time.
